Read-outs that look alike come from different tables or passages of the source.
Assays:
[1] = test system: MCF-7 human breast cancer cells; experiment: Assay of cell proliferation in vitro (cell counts); type: cell-based; conditions: for cell growth after brief treatment with BSA conjugate: 0.5 μM for 10 min, 72 h in estrogen-free media
[2] = test system: MAPK, ERK-1 (p44) and ERK-2 (p42); experiment: p44/42 MAPK phosphorylation/activity in MCF-7 cells; type: cell-based, human
Akt kinase = Akt kinase activity (phosphorylated GSK-3 densitometry) in MCF-7 cells; type: cell-based, human
[3] = test system: surface membrane ER of MCF-7 (MCF-7 PAR) breast cancer cells; experiment: Membrane labeling with E2β-BSA-FITC, fluorescent microscopy and flow cytometry; type: binding, human
[4] = biological target: plasma membranes from MCF-7 human breast cancer cells (membrane-associated estrogen receptor) (Homo sapiens, UniProt P03372); conditions: 100-fold molar excess of competitor
estrogen receptor = experiment: Serine phosphorylation of estrogen receptor in human breast cancer cells; type: cell-based; conditions: prior exposure, 15 minutes after estrogen
Procedure: FIG. 12 is a gel showing that the MAPKK (MEK) inhibitor, PD 98059 (PD), reduces estrogen (E2)-induced serine phosphorylation of estrogen receptor. Serine phosphorylation of estrogen receptor in human breast cancer cells was assessed at 15-60 min after treatment with E2 alone or in combination with PD 98059
This blockade of estrogen-induced MAP kinase activation by PD 980959 results in the suppression of estrogen-induced growth of MCF-7 breast cancer cells (see FIG. 13).

[5] = biological target: T1, HER-2 receptor / estrogen receptor association (Homo sapiens, UniProt P04626+P21860); experiment: Immunoprecipitation/Western blot of HER-2 receptor with ER; type: cell-based; conditions: 10 nM, 5-60 minutes, MCF-7 cells
T1 construct: endogenous in cells; host or cells: MCF-7 PAR
Procedure: MCF-7 breast cancer cells were treated in vitro for 5-60 minutes with 10 nM heregulin, a ligand known to activate HER-2/HER-3 receptors (3). Lysates were prepared and processed as described before (3). Samples were immunoprecipitated with anti-HER-2 antibody (IP:HER-2 receptor) prior to electrophoresis and Western blotting with anti-ER antibody H222 (IB: estrogen receptor). Estrogen receptor normally occurs as a 65- to 70-kd protein (3). The experiment shown here is representative of results from 4 other experiments. In independent experiments in which samples were immunoprecipitated with anti-ER antibody prior to electrophoresis and Western blotting with anti-HER-2 antibody, a similar association between ER and HER-2 receptors was found.
To further evaluate prior reports of cross-communication between ER and HER-2 receptors (3,24,29,54), MCF-7 PAR cells were treated in vitro with heregulin, a ligand for activation of HER-2/HER-3 receptor heterodimers (3). […] MCF-7 breast cancer cells were treated in vitro for 5-60 minutes with 10 nM heregulin, a ligand known to activate HER-2/HER-3 receptors (3). Lysates were prepared and processed as described before (3). Samples were immunoprecipitated with anti-HER-2 antibody (IP: HER-2 receptor) prior to electrophoresis and Western blotting with anti-ER antibody H222 (IB: estrogen receptor). […]

[6] = test system: MAPK, ERK-1 (p44) and ERK-2 (p42); conditions: independent report (40); cited from earlier work

## 17β-estradiol 17-hemisuccinate covalently linked to bovine serum albumin [Ab E2β-BSA]
[1]
  cell growth after brief treatment with BSA conjugate: stimulates cell growth
[1]; 10 min treatment, counted after 48 hrs in estrogen-free media, P<0.001
  proliferative response to short-term treatment: stimulate cell growth
[2]; 10 nM E2β, E2α, 0.5 μM BSA conjugates
  phosphorylation of MAPK isoforms: phosphorylation of MAPK isoforms is again evident
Akt kinase; 10 nM E2β or 0.5 μM E2β-BSA for 20 min
  activation of Akt kinase: significant activation

## N#CC(=C(/N)Sc1ccccc1N)/C(C#N)=C(\N)Sc1ccccc1N [Ab U0126]
[1]; 10 μM for 2 h before VH, 10 nM E2 or 1 μM E2-BSA, 72 h
  Inhibition of MCF-7 cell growth: Inhibition
[2]; Ab2 10 μg/ml 2 h or U0126 25 μM 90 min preincubation
  inhibition of MAPK phosphorylation/activation induced by E2β or E2β-BSA: prevented activation

## CC(=O)[C@H]1CC[C@H]2[C@@H]3CCC4=CC(=O)CC[C@]4(C)[C@H]3CC[C@]12C [progesterone]
[3]; MCF-7 PAR cells, Ab 1 at 1 μg/ml
  competition for membrane-associated binding of E2β-BSA-FITC: not
[3]; MCF-7 cells, P<0.01
  competition for E2β-BSA-FITC surface binding (flow cytometry): not effective
[4]
  suppression of [3H]E2β binding to PM by unlabeled competing steroid: essentially uninfluenced

## C[C@]12CC[C@H]3[C@@H](CCC4=CC(=O)CC[C@@]43C)[C@@H]1CC[C@@H]2O [testosterone]
[4]
  suppression of [3H]E2β binding to PM by unlabeled competing steroid: essentially uninfluenced

## COc1cccc(-c2cc(=O)c3ccccc3o2)c1N [PD 98059]
[1]; 20 micromolar inhibitor, estradiol-17β at 2 nM
  suppression of estrogen-induced growth: suppression
[2]; pre-treatment, 20 μM
  blockade of estradiol activation of MAP kinase: blocked
Estrogen receptor
  suppression of estrogen-induced serine phosphorylation of the estrogen receptor: suppressed

## heregulin
[5]
  physical association of HER-2 receptor with estrogen receptor: promotes physical association

## 6 keto-17α-estradiol 6-(o-carboximethyloxime:BSA [Ab E2α-BSA]
[1]
  cell growth after brief treatment with BSA conjugate: not

## C[C@]12CC[C@@H]3c4ccc(O)cc4C[C@@H](CCCCCCCCC[S+]([O-])CCCC(F)(F)C(F)(F)F)[C@H]3[C@@H]1CC[C@@H]2O (stereo partly drawn) [ICI 182,780]
[3]
  competition for E2β-BSA-FITC surface binding (flow cytometry): significant reduction
  competition for membrane-associated binding of E2β-BSA-FITC: competitively reduced
[1]; 10 nM ICI 182,780 with 200 nM E2-BSA, 10 min, 48 hrs
  blockade of proliferative effect of E2β-BSA: blocked
[1]; 0.5 μM E2β-BSA 10 min, 72 h
  blockade of proliferative effect of E2β-BSA: blocked
Akt kinase; preincubation: Ab2 10 μg/ml, ICI 182,780 1 μM, LY294002 10 μM
  inhibition of estrogen-induced Akt kinase activation: inhibition
[6]
  inhibition of estrogen-induced MAPK activity in MCF-7 cells: inhibit
